# Test results from the RepoRT retention time repository (doi:10.1016/j.jhazmat.2019.121712).
# Experiment: Thermo Scientific Acclaim RSLC 120 C18, 100 × 2.1 mm, 2.2 µm, 30 °C; A: 90% water + 10% methanol + 0.01% formic acid + 5 mM ammonium formate; B: methanol + 0.01% formic acid + 5 mM ammonium formate; gradient (min/%B) 0.1/1 3/39 14/99.9 16/99.9
# Details: stereoisomer not certain
row,Structure (SMILES),LC retention time [min]
1,CCCCCn1cc(C(=O)c2ccc(OC)c3ccccc23)c2ccccc21,12.7
2,NC12CC3CC(CC(C3)C1)C2,4.86
3,CC(N)C(=O)c1ccccc1 (stereo unspecified),3.59
4,CC(N)C12CC3CC(CC(C3)C1)C2 (stereo unspecified),6.71
5,Cc1ccc(S(=O)(=O)NC(=O)NC2C3CCC(C)(C2O)C3(C)C)cc1 (stereo unspecified),9.79
6,CC1(C)C(C(=O)OC(C#N)c2cccc(Oc3ccccc3)c2)C1(C)C (stereo unspecified),12.9
7,CCC1OC(=O)C(C)C(=O)C(C)C(OC2OC(C)CC(N(C)C)C2O)C(C)(OC)CC(C)C(=O)C(C)C2N(CCCCn3cnc(-c4cccnc4)c3)C(=O)OC12C (stereo unspecified),7.25
8,CCC(c1cccc(O)c1)C(C)CNC (stereo unspecified),5.14
9,Cc1nnc(-c2ccccc2)c(=O)n1N,5.24
10,OC(c1ccccc1)(c1ccccc1)C1CCNCC1,6.19
11,CC(=O)Oc1ccc2c3c1OC1C(OC(C)=O)C=CC4C(C2)N(C)CCC341 (stereo unspecified),4.63
12,COc1cc2[nH]c(C)c(CCN3CCN(c4ccccc4)CC3)c2cc1OC,5.76
13,COC(=O)C1C(O)CCC2CN3CCc4c([nH]c5ccccc45)C3CC21 (stereo unspecified),5.08
14,CN(C)C(=O)Nc1ccccc1,5.12
15,COP(=S)(OC)Oc1ccc(Sc2ccc(OP(=S)(OC)OC)cc2)cc1,12.4
16,CCNC(=O)c1ccc(OC)cc1,5.59
17,CC(C)C(N)C(=O)OCC(CO)OCn1cnc2c(=O)[nH]c(N)nc21 (stereo unspecified),2.71
18,CNC(=O)CSP(=O)(OC)OC,3.35
19,CCOC(=O)C1=CC(OC(CC)CC)C(NC(C)=O)C(N)C1 (stereo unspecified),6.76
20,CC[N+]([O-])(CC)CC(=O)Nc1c(C)cccc1C,5.34
21,CC12CCC3C(CCC4=CC(=O)CCC43C)C1CCC2=O (stereo unspecified),9.36
22,CCCCCc1cc(O)c2c(c1)OC(C)(C)C1CCC(CO)=CC21 (stereo unspecified),12.5
23,CCCC(C(=O)OCCN(CC)CC)(c1ccccc1)c1ccccc1,9.41

row,Structure (SMILES),LC retention time [min]
1,CCOP(=S)(OCC)Oc1ccc(S(C)(=O)=O)cc1,8.48
2,CN1C(C(=O)Nc2ccccn2)=C(O)c2ccccc2S1(=O)=O,6.84
3,CC(C)N1C(=O)N(c2ccccc2)CSC1=NC(C)(C)C,12.2
4,O=C(O)CCCn1cc(C(=O)c2cccc3ccccc23)c2ccccc21,9.33
5,CCC(=O)C(CCN(C)C)(c1ccccc1)c1ccccc1,7.68
6,CC(C)Nc1nc(N)[nH]c(=O)n1,3.16
7,CC(=O)Nc1ccc(-c2ccc(C=NN3CC(=O)NC3=O)o2)cc1,5.67
8,CCCCNC(=O)n1c(NC(=O)OC)nc2ccccc21,5.46
9,CCN(CC)C(=O)NC1C=C2c3cccc4[nH]cc(c34)CC2N(C)C1 (stereo unspecified),5.92
10,COC(=O)C(Cc1ccccc1)NC(=O)C(N)CC(=O)O (stereo unspecified),5.01
11,CCOP(=S)(OCC)Oc1cnccn1,8.35
12,CCCC(C(=O)c1ccccc1)N1CCCC1 (stereo unspecified),5.08
13,CCOC(=O)c1cn2nc(OP(=S)(OCC)OCC)cc2nc1C,11.4
14,COc1cc(SC(C)C)c(OC)cc1CCN,6.69
15,Cc1cc(C(C)(C)C)cc(C)c1CC1=NCCN1,7.75
16,CC(C)N1C(=O)c2ccccc2NS1(=O)=O,5.22
17,C=CC(=O)NC(C)(C)CS(=O)(=O)O,2.8
18,Cn1cc[nH]c1=S,2.61
19,CC1(C)C(C(=O)c2cn(CCN3CCOCC3)c3ccccc23)C1(C)C,10.7
20,CCOP(=S)(OCC)SCCS(=O)CC (stereo unspecified),7.86
21,CC(=O)Oc1cc(C(C)C)c(OCCN(C)C)cc1C,6.21
22,CCCOC(C(=O)OC1CCN(C)CC1)(c1ccccc1)c1ccccc1,9.36
23,CCCN(CCC)c1c([N+](=O)[O-])cc(C(C)C)cc1[N+](=O)[O-],13.2
